# Where “and” joins values, the source holds several entries; their conditions need not be identical. Identical values can stand only once.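 Test compounds were applied to cells in 96-well plates for 48 hours at 5 doses. The concentration for 50% growth inhibition is given as GI50. At the TGI there is no net growth.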
# Experiments:
# Test in all cases: NCI anticancer screen, dose series, 48 h
# [1] = test system: 786-0 renal
# [2] = test system: A498 renal
# [3] = test system: A549 NSCLC
# [4] = test system: ACHN renal
# [5] = test system: BT-549 breast
# [6] = test system: CCRF-CEM leukemia
# [7] = test system: DU-145 prostate
# [8] = test system: EKVX NSCLC
# [9] = test system: HCC-2998 colon
# [10] = test system: HCT-116 colon
# [11] = test system: HCT-15 colon
# [12] = test system: HL-60(TB) leukemia
# [13] = test system: HOP-62 NSCLC
# [14] = test system: HOP-92 NSCLC
# [15] = test system: HS 578T breast
# [16] = test system: HT29 colon
# [17] = test system: IGROV1 ovarian
# [18] = test system: K-562 leukemia
# [19] = test system: KM12 colon
# [20] = test system: LOX IMVI melanoma
# [21] = test system: M14 melanoma
# [22] = test system: MALME-3M melanoma
# [23] = test system: MCF7 breast
# [24] = test system: MDA-MB-231 breast
# [25] = test system: MDA-MB-435
# [26] = test system: MDA-N
# [27] = test system: MOLT-4 leukemia
# [28] = test system: NCI-H226 lung
# [29] = test system: NCI-H23 lung
# [30] = test system: NCI-H460 lung
# [31] = test system: NCI/ADR-RES ovarian
# [32] = test system: OVCAR-3 ovarian
# [33] = test system: OVCAR-4 ovarian
# [34] = test system: OVCAR-5 ovarian
# [35] = test system: OVCAR-8 ovarian
# [36] = test system: PC-3 prostate
# [37] = test system: RPMI-8226 leukemia
# [38] = test system: RXF 393 renal
# [39] = test system: SF-268 CNS
# [40] = test system: SF-295 CNS
# [41] = test system: SF-539 CNS
# [42] = test system: SK-MEL-28 melanoma
# [43] = test system: SK-MEL-5 melanoma
# [44] = test system: SN12C renal
# [45] = test system: SNB-19 CNS
# [46] = test system: SNB-75 CNS
# [47] = test system: SR leukemia
# [48] = test system: SW-620 colon
# [49] = test system: TK-10 renal
# [50] = test system: U251 CNS
# [51] = test system: UACC-257 melanoma
# [52] = test system: CAKI-1 renal
# [53] = test system: COLO 205 colon
# [54] = test system: SK-MEL-2 melanoma
# [55] = test system: SK-OV-3 ovarian
# [56] = test system: T-47D breast
# [57] = test system: UO-31 renal
# [58] = test system: NCI-H522 lung
# [59] = test system: UACC-62 melanoma
compound,measurement,setting,value
O=C1CC(CC(OCc2ccccc2)C(OCc2ccccc2)C(COCc2ccccc2)OCc2ccccc2)CC(=O)N1 (stereo not drawn),GI50,[1],> 100 µM and 11 µM
same,TGI,[1],> 100 µM and 49.3 µM
same,GI50,[2],> 100 µM and 21.7 µM
same,TGI,[2],> 100 µM and 89 µM
same,TGI,[3],> 100 µM
same,GI50,[4],> 100 µM and 18.2 µM
same,TGI,[4],> 100 µM
same,GI50,[5],> 100 µM and 12.6 µM
same,TGI,[5],> 100 µM and 25.3 µM
same,TGI,[6],> 100 µM
same,GI50,[7],> 100 µM and 27.1 µM
same,TGI,[7],> 100 µM
same,GI50,[8],> 100 µM and 12.5 µM
same,TGI,[8],> 100 µM
same,GI50,[9],> 100 µM and 12.9 µM
same,TGI,[9],> 100 µM and 42.9 µM
same,TGI,[10],> 100 µM and 34.2 µM
same,TGI,[11],> 100 µM and 47.2 µM
same,TGI,[12],> 100 µM and 25.4 µM
same,GI50,[13],> 100 µM and 26.8 µM
same,TGI,[13],> 100 µM and 73.1 µM
same,TGI,[14],> 100 µM
same,GI50,[15],> 100 µM and 16.5 µM
same,TGI,[15],> 100 µM and 33.9 µM
same,TGI,[16],18 µM
same,GI50,[17],> 100 µM and 17.2 µM
same,TGI,[17],> 100 µM and 33.7 µM
same,TGI,[18],> 100 µM
same,TGI,[19],> 100 µM and 21.3 µM
same,GI50,[20],> 100 µM and 10.7 µM
same,TGI,[20],> 100 µM and 22.5 µM
same,GI50,[21],> 100 µM and 19.8 µM
same,TGI,[21],> 100 µM
same,GI50,[22],> 100 µM and 15.5 µM
same,TGI,[22],> 100 µM and 32.4 µM
same,TGI,[23],> 100 µM and 31.4 µM
same,TGI,[24],23.7 µM
same,TGI,[25],> 100 µM and 21.7 µM
same,GI50,[26],> 100 µM and 12.5 µM
same,TGI,[26],> 100 µM and 27.7 µM
same,TGI,[27],> 100 µM and 35.3 µM
same,GI50,[28],> 100 µM and 17.7 µM
same,TGI,[28],> 100 µM and 62.4 µM
same,GI50,[29],> 100 µM and 18.6 µM
same,TGI,[29],> 100 µM
same,TGI,[30],> 100 µM and 97.7 µM
same,GI50,[31],> 100 µM and 12.8 µM
same,TGI,[31],> 100 µM
same,GI50,[32],> 100 µM and 12.2 µM
same,TGI,[32],> 100 µM and 44 µM
same,TGI,[33],> 100 µM
same,GI50,[34],> 100 µM and 24.9 µM
same,TGI,[34],> 100 µM and 80.8 µM
same,GI50,[35],> 100 µM and 13.7 µM
same,TGI,[35],> 100 µM and 48.8 µM
same,GI50,[36],> 100 µM and 11.3 µM
same,TGI,[36],> 100 µM and 38.5 µM
same,TGI,[37],> 100 µM and 32.8 µM
same,GI50,[38],24.5 µM and 2.72 µM
same,TGI,[38],> 100 µM and 15 µM
same,GI50,[39],> 100 µM and 11.2 µM
same,TGI,[39],> 100 µM and 65.3 µM
same,GI50,[40],> 100 µM and 11.2 µM
same,TGI,[40],> 100 µM and 28.4 µM
same,GI50,[41],> 100 µM and 16.8 µM
same,TGI,[41],> 100 µM and 35.5 µM
same,GI50,[42],> 100 µM and 21.4 µM
same,TGI,[42],> 100 µM
same,GI50,[43],> 100 µM and 12.6 µM
same,TGI,[43],> 100 µM and 25.6 µM
same,GI50,[44],> 100 µM and 18.6 µM
same,TGI,[44],> 100 µM and 54.1 µM
same,GI50,[45],> 100 µM and 33.8 µM
same,TGI,[45],> 100 µM
same,TGI,[46],> 100 µM and 75.2 µM
same,TGI,[47],> 100 µM and 65.4 µM
same,GI50,[48],> 100 µM and 11.7 µM
same,TGI,[48],> 100 µM and 23.9 µM
same,TGI,[49],> 100 µM
same,TGI,[50],> 100 µM and 18.1 µM
same,GI50,[51],> 100 µM and 16.3 µM
same,TGI,[51],> 100 µM and 36.4 µM
Cc1cc(C)nc(NS(=O)(=O)c2ccc(NC(=O)NC(F)(F)F)cc2)n1,TGI,[1],> 100 µM
same,TGI,[2],> 100 µM
same,TGI,[3],> 100 µM
same,TGI,[4],> 100 µM
same,TGI,[5],> 100 µM
same,TGI,[52],72.8 µM
same,TGI,[6],> 100 µM
same,TGI,[53],> 100 µM
same,TGI,[8],> 100 µM
same,TGI,[9],> 100 µM
same,TGI,[10],> 100 µM
same,TGI,[11],> 100 µM
same,TGI,[12],> 100 µM
same,TGI,[15],> 100 µM
same,TGI,[16],> 100 µM
same,TGI,[17],> 100 µM
same,TGI,[18],> 100 µM
same,TGI,[20],> 100 µM
same,TGI,[21],> 100 µM
same,TGI,[25],> 100 µM
same,TGI,[26],> 100 µM
same,TGI,[27],> 100 µM
same,TGI,[29],> 100 µM
same,TGI,[31],> 100 µM
same,TGI,[34],> 100 µM
same,TGI,[35],> 100 µM
same,TGI,[36],> 100 µM
same,TGI,[37],> 100 µM
same,TGI,[38],> 100 µM
same,TGI,[39],> 100 µM
same,TGI,[41],> 100 µM
same,TGI,[54],> 100 µM
same,TGI,[42],> 100 µM
same,TGI,[43],> 100 µM
same,TGI,[55],> 100 µM
same,TGI,[44],> 100 µM
same,TGI,[45],> 100 µM
same,TGI,[46],> 100 µM
same,TGI,[47],> 100 µM
same,TGI,[48],> 100 µM
same,TGI,[56],> 100 µM
same,TGI,[49],> 100 µM
same,TGI,[50],> 100 µM
same,TGI,[51],> 100 µM
same,TGI,[57],> 100 µM
COc1cc(/C=C2\N=C(c3ccccc3)N(c3nc4ccc(Sc5ccccc5)cc4[nH]3)C2=O)cc(OC)c1OC,TGI,[1],42.4 µM
same,TGI,[2],71.8 µM
same,TGI,[3],> 100 µM
same,TGI,[4],57.7 µM
same,TGI,[5],55.1 µM
same,TGI,[52],> 100 µM
same,TGI,[6],> 100 µM
same,TGI,[53],33 µM
same,TGI,[7],75.8 µM
same,TGI,[8],> 100 µM
same,TGI,[9],30.3 µM
same,TGI,[10],55.2 µM
same,TGI,[11],> 100 µM
same,TGI,[12],37.8 µM
same,TGI,[13],> 100 µM
same,TGI,[14],> 100 µM
same,TGI,[15],> 100 µM
same,TGI,[16],48.4 µM
same,TGI,[17],> 100 µM
same,TGI,[18],48.1 µM
same,TGI,[19],58.8 µM
same,TGI,[20],61.7 µM
same,TGI,[21],49.7 µM
same,TGI,[22],40.3 µM
same,TGI,[23],45.9 µM
same,TGI,[24],50.3 µM
same,TGI,[25],23 µM
same,TGI,[26],24.7 µM
same,TGI,[27],78.5 µM
same,TGI,[29],97.3 µM
same,TGI,[30],51.4 µM
same,TGI,[58],48 µM
same,TGI,[31],74.6 µM
same,TGI,[32],> 100 µM
same,TGI,[33],> 100 µM
same,TGI,[34],> 100 µM
same,TGI,[35],> 100 µM
same,TGI,[36],> 100 µM
same,TGI,[37],56.4 µM
same,TGI,[38],> 100 µM
same,TGI,[39],> 100 µM
same,TGI,[40],90.1 µM
same,TGI,[54],33 µM
same,TGI,[42],67.4 µM
same,TGI,[43],26.3 µM
same,TGI,[55],> 100 µM
same,TGI,[44],92.4 µM
same,TGI,[45],> 100 µM
same,TGI,[46],> 100 µM
same,TGI,[48],> 100 µM
same,TGI,[56],> 100 µM
same,TGI,[49],57.4 µM
same,TGI,[50],43.9 µM
same,TGI,[51],45.6 µM
same,TGI,[59],38.7 µM
same,TGI,[57],> 100 µM
